{
  "source": "ChEMBL document CHEMBL3885861",
  "about": "“Open TG-GATES”",
  "species": "Rattus norvegicus",
  "experiment": "Open TG-GATES - Regimen: Daily Repeat",
  "type": "toxicity, organism-based, Sprague-Dawley",
  "parameters": "regimen Daily Repeat, gender Male, age 6 weeks",
  "settings": "in vivo, po, 5 mg/kg, route gavage, dose level Low; for APTT / Bas / Eos / Fbg / Hb / Ht / Lym / MCH / MCHC / MCV / Mono / Neu / PT / Plat / RBC / Ret / WBC: tissue Blood",
  "key": {"[1]": {"settings": "72 h, tissue Plasma, time 3 day"}},
  "data": [
    {"smiles": "C=C(C)[C@H]1Cc2c(ccc3c2O[C@@H]2COc4cc(OC)c(OC)cc4[C@@H]2C3=O)O1", "note": "[ROTENONE]", "values": [
      {"measurement": "TERMINAL_BW", "setting": "72 h, time 3 day", "result": 226.1, "unit": "g"},
      {"measurement": "APTT", "setting": "72 h, time 3 day", "result": 17.7, "unit": "s"},
      {"measurement": "Bas", "setting": "72 h, time 3 day", "result": 0, "unit": "%"},
      {"measurement": "Eos", "setting": "72 h, time 3 day", "result": 1, "unit": "%"},
      {"measurement": "Fbg", "setting": "72 h, time 3 day", "result": 212.2, "unit": "mg/dL"},
      {"measurement": "Hb", "setting": "72 h, time 3 day", "result": 13, "unit": "g/dL"},
      {"measurement": "Ht", "setting": "72 h, time 3 day", "result": 39.1, "unit": "%"},
      {"measurement": "Lym", "setting": "72 h, time 3 day", "result": 76.2, "unit": "%"},
      {"measurement": "MCH", "setting": "72 h, time 3 day", "result": 21.3, "unit": "pg"},
      {"measurement": "MCHC", "setting": "72 h, time 3 day", "result": 33.2, "unit": "%"},
      {"measurement": "MCV", "setting": "72 h, time 3 day", "result": 64.1, "unit": "fL"},
      {"measurement": "Mono", "setting": "72 h, time 3 day", "result": 5.6, "unit": "%"},
      {"measurement": "Neu", "setting": "72 h, time 3 day", "result": 17.2, "unit": "%"},
      {"measurement": "PT", "setting": "72 h, time 3 day", "result": 12.1, "unit": "s"},
      {"measurement": "Plat", "setting": "72 h, time 3 day", "result": 129, "unit": "x10_4/uL"},
      {"measurement": "RBC", "setting": "72 h, time 3 day", "result": 610.6, "unit": "x10_4/ul"},
      {"measurement": "Ret", "setting": "72 h, time 3 day", "result": 7.7, "unit": "%"},
      {"measurement": "WBC", "setting": "72 h, time 3 day", "result": 114.4, "unit": "x10_2/uL"},
      {"measurement": "LIVER", "setting": "72 h, tissue Liver, time 3 day", "result": 11.2, "unit": "g"},
      {"measurement": "A/G", "setting": "[1]", "result": 2.2},
      {"measurement": "ALP", "setting": "[1]", "result": 1376, "unit": "IU/L"},
      {"measurement": "ALT", "setting": "[1]", "result": 37.2, "unit": "IU/L"},
      {"measurement": "AST", "setting": "[1]", "result": 67.4, "unit": "IU/L"},
      {"measurement": "BUN", "setting": "[1]", "result": 19.2, "unit": "mg/dL"},
      {"measurement": "CRE", "setting": "[1]", "result": 0.4, "unit": "mg/dL"},
      {"measurement": "Ca", "setting": "[1]", "result": 11.6, "unit": "mg/dL"},
      {"measurement": "Cl", "setting": "[1]", "result": 104.8, "unit": "meq/L"},
      {"measurement": "DBIL", "setting": "[1]", "result": 0.014, "unit": "mg/dL"},
      {"measurement": "GLC", "setting": "[1]", "result": 188.2, "unit": "mg/dL"},
      {"measurement": "IP", "setting": "[1]", "result": 7.5, "unit": "mg/dL"},
      {"measurement": "K", "setting": "[1]", "result": 4.5, "unit": "meq/L"},
      {"measurement": "LDH", "setting": "[1]", "result": 111.2, "unit": "IU/L"},
      {"measurement": "Na", "setting": "[1]", "result": 142.4, "unit": "meq/L"},
      {"measurement": "PL", "setting": "[1]", "result": 152.4, "unit": "mg/dL"},
      {"measurement": "RALB", "setting": "[1]", "result": 3.8, "unit": "g/dL"},
      {"measurement": "TBIL", "setting": "[1]", "result": 0.032, "unit": "mg/dL"},
      {"measurement": "TC", "setting": "[1]", "result": 85.6, "unit": "mg/dL"},
      {"measurement": "TG", "setting": "[1]", "result": 78, "unit": "mg/dL"},
      {"measurement": "TP", "setting": "[1]", "result": 5.6, "unit": "g/dL"},
      {"measurement": "gamma-GTP", "setting": "[1]", "result": 0.4, "unit": "IU/L"},
      {"measurement": "TERMINAL_BW", "setting": "[…], time 7 day", "result": 258.8, "unit": "g"},
      {"measurement": "TERMINAL_BW", "setting": "[…], time 14 day", "result": 318.2, "unit": "g"},
      {"measurement": "TERMINAL_BW", "setting": "[…], time 28 day", "result": 393.8, "unit": "g"},
      {"measurement": "APTT", "setting": "[…], time 7 day", "result": 15.9, "unit": "s"},
      {"measurement": "Bas", "setting": "[…], time 7 day", "result": 0, "unit": "%"},
      {"measurement": "Eos", "setting": "[…], time 7 day", "result": 0.8, "unit": "%"},
      {"measurement": "Fbg", "setting": "[…], time 7 day", "result": 227.4, "unit": "mg/dL"},
      {"measurement": "Hb", "setting": "[…], time 7 day", "result": 13.4, "unit": "g/dL"},
      {"measurement": "Ht", "setting": "[…], time 7 day", "result": 40.6, "unit": "%"},
      {"measurement": "Lym", "setting": "[…], time 7 day", "result": 68.2, "unit": "%"},
      {"measurement": "MCH", "setting": "[…], time 7 day", "result": 21.5, "unit": "pg"},
      {"measurement": "MCHC", "setting": "[…], time 7 day", "result": 33, "unit": "%"},
      {"measurement": "MCV", "setting": "[…], time 7 day", "result": 65.3, "unit": "fL"},
      {"measurement": "Mono", "setting": "[…], time 7 day", "result": 9.6, "unit": "%"},
      {"measurement": "Neu", "setting": "[…], time 7 day", "result": 21.6, "unit": "%"},
      {"measurement": "PT", "setting": "[…], time 7 day", "result": 11.6, "unit": "s"},
      {"measurement": "Plat", "setting": "[…], time 7 day", "result": 117.4, "unit": "x10_4/uL"},
      {"measurement": "RBC", "setting": "[…], time 7 day", "result": 622.8, "unit": "x10_4/ul"},
      {"measurement": "Ret", "setting": "[…], time 7 day", "result": 5.7, "unit": "%"},
      {"measurement": "WBC", "setting": "[…], time 7 day", "result": 93.6, "unit": "x10_2/uL"},
      {"measurement": "APTT", "setting": "[…], time 14 day", "result": 15.7, "unit": "s"},
      {"measurement": "Bas", "setting": "[…], time 14 day", "result": 0, "unit": "%"},
      {"measurement": "Eos", "setting": "[…], time 14 day", "result": 1, "unit": "%"},
      {"measurement": "Fbg", "setting": "[…], time 14 day", "result": 238.2, "unit": "mg/dL"},
      {"measurement": "Hb", "setting": "[…], time 14 day", "result": 13.9, "unit": "g/dL"},
      {"measurement": "Ht", "setting": "[…], time 14 day", "result": 41.7, "unit": "%"},
      {"measurement": "Lym", "setting": "[…], time 14 day", "result": 75.8, "unit": "%"},
      {"measurement": "MCH", "setting": "[…], time 14 day", "result": 20.6, "unit": "pg"},
      {"measurement": "MCHC", "setting": "[…], time 14 day", "result": 33.2, "unit": "%"},
      {"measurement": "MCV", "setting": "[…], time 14 day", "result": 62.2, "unit": "fL"},
      {"measurement": "Mono", "setting": "[…], time 14 day", "result": 5.2, "unit": "%"},
      {"measurement": "Neu", "setting": "[…], time 14 day", "result": 18.4, "unit": "%"},
      {"measurement": "PT", "setting": "[…], time 14 day", "result": 11.4, "unit": "s"},
      {"measurement": "Plat", "setting": "[…], time 14 day", "result": 130.8, "unit": "x10_4/uL"},
      {"measurement": "RBC", "setting": "[…], time 14 day", "result": 671.4, "unit": "x10_4/ul"},
      {"measurement": "Ret", "setting": "[…], time 14 day", "result": 3.8, "unit": "%"},
      {"measurement": "WBC", "setting": "[…], time 14 day", "result": 138.2, "unit": "x10_2/uL"},
      {"measurement": "APTT", "setting": "[…], time 28 day", "result": 19, "unit": "s"},
      {"measurement": "Bas", "setting": "[…], time 28 day", "result": 0, "unit": "%"},
      {"measurement": "Eos", "setting": "[…], time 28 day", "result": 1.2, "unit": "%"}
    ]}
  ]
}
